In article PMC9386376, “Discovery of spirooxindole-derived small-molecule compounds as novel HDAC/MDM2 dual inhibitors and investigation of their anticancer activity” (Frontiers in Oncology, 2022):
pIC50: −log10 of the molar value. “Also recorded” adds a separate entry of the source.

Assays:
MDM2, p53 in MCF-7 cells = assay: Western blot, MDM2 and p53 protein level; assay type: cell-based, human; details: MCF-7, 24 h incubation
Procedure: The cells were collected and washed with cold PBS twice, then added the protease and phosphatase inhibitors contained lysis buffer. Total cell lysates were prepared in lysis RIPA buffer (Invitrogen, CA, USA) on ice for 30 min, followed by centrifugation at 12000 rpm for 10 min at 4°C. After collecting supernatant, protein concentration was determined by a BCA protein assay. The total proteins were loaded into the 10%-15% SDS-PAGE gel and separated by sodium dodecyl sulfate polyacrylamide gel electrophoresis (PAGE). After electrophoresis, the protein was transferred to the PVDF membranes and rinsed three times in PBST buffer for 10 min each time, then sealed with 5% BSA Buffer for 1h. The membranes were incubated at 4°C for 24 h with primary antibodies and washed with TBST three times. Then incubated at room temperature for 2 h with secondary antibodies (1:10,000). The incubated PVDF membranes were taken out and rinsed with TBST three times. The protein bands were visualized through enhanced chemiluminescence (ECL) WB substrate (Millipore, MA, USA) and analyzed by ChemiScope. The antibodies including p53, MDM2, H4, and GAPDH were purchased from Abcam (Cambridge, MA, USA).

HDAC11 = target: T1, HDAC11 (Homo sapiens, UniProt Q96DB2); assay: HDAC isoform selectivity, HDAC11; assay type: biochemical; details: HDAC subtype panel
T1 sequence (Q96DB2 1-347): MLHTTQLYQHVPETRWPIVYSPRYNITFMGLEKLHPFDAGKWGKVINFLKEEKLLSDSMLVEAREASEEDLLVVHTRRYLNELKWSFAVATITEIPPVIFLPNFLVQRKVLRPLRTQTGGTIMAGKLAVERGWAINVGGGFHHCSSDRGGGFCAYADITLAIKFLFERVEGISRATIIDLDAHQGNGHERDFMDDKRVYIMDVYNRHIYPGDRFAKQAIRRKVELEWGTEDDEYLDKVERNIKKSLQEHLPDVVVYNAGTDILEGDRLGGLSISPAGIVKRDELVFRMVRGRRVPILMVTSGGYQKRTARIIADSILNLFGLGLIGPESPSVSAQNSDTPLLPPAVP

O=C(CCCCCCC(=O)N1CCC(C(=O)Nc2ccc([C@@H]3[C@H]4CSCN4[C@]4(C(=O)Nc5cc(Cl)ccc54)[C@H]3C(=O)c3ccccc3)cc2)CC1)NO [compound 11b, N-(4-((3R,6'S,7'R,7a'S)-6'-benzoyl-6-chloro-2-oxo-1',6',7',7a'-tetrahydro-3'H-spiro[indoline-3,5'-pyrrolo[1,2-c]thiazol]-7'-yl)phenyl)-1-(8-(hydroxyamino)-8-oxooctanoyl)piperidine-4-carboxamide]
protein level of MDM2 and p53 (western blot) (MDM2, p53 in MCF-7 cells): up-regulating the expression of p53; also recorded: increased the expression of p53; also recorded: dose-dependently increased the protein level of MDM2 as well as p53 | pIC50 (HDAC11): < 5.00
